Measured values: ChEMBL document CHEMBL4257544, “Synthesis and biological evaluation of novel asymmetric naphthalene diimide derivatives as anticancer agents depending on ROS generation” (Medchemcomm, 2018)
Activity calls are given as the source filed them. No cut-off for these calls is given here.

Columns and labels:
HepG2 [1] = experiment: Induction of apoptosis in human HepG2 cells after 24 hrs by acridine orange/ethidium bromide and Hoechst 33342 staining based HCS analysis; format: functional, cell-based
MCF7 = experiment: Cytotoxicity against human MCF7 cells after 48 hrs by MTT assay; format: functional, cell-based; conditions: MCF7, 48 h
HCT-116 = experiment: Cytotoxicity against human HCT116 cells after 48 hrs by MTT assay; format: functional, cell-based; conditions: HCT-116, 48 h
HepG2 [2] = experiment: Potency index, ratio of amonafide IC50 to compound IC50 for cytotoxicity against human HepG2 cells; format: functional
SMMC-7721 [3] = experiment: Potency index, ratio of amonafide IC50 to compound IC50 for cytotoxicity against human SMMC7721 cells; format: functional
HepG2 [4] = experiment: Cytotoxicity against human HepG2 cells after 24 hrs by MTT assay; format: functional, cell-based; conditions: HepG2, 24 h
SMMC-7721 [5] = experiment: Cytotoxicity against human SMMC7721 cells after 24 hrs by MTT assay; format: functional, cell-based; conditions: SMMC-7721, 24 h
[6] = Cytotoxicity against human QSG7701 cells after 48 hrs by MTT assay; format: cell-based; conditions: QSG7701, 48 h
HepG2 [7] = experiment: Cytotoxicity against human HepG2 cells assessed as cell rounding after 24 hrs; format: functional, cell-based
HepG2 [8] = experiment: Cytotoxicity against human HepG2 cells assessed as reduction in cell volume after 24 hrs; format: functional, cell-based
HepG2 [9] = experiment: Cytotoxicity against human HepG2 cells assessed as cytoplasm shrinkage after 24 hrs; format: functional, cell-based
SMMC-7721 [10] = experiment: Cytotoxicity against human SMMC7721 cells assessed as cell rounding after 24 hrs; format: functional, cell-based
SMMC-7721 [11] = experiment: Cytotoxicity against human SMMC7721 cells assessed as reduction in cell volume after 24 hrs; format: functional, cell-based
SMMC-7721 [12] = experiment: Cytotoxicity against human SMMC7721 cells assessed as cytoplasm shrinkage after 24 hrs; format: functional, cell-based
HepG2 [13] = experiment: Induction of apoptosis in human HepG2 cells after 24 hrs by Annexin V/propidium iodide staining based flow cytometry; format: functional, cell-based
SMMC-7721 [14] = experiment: Induction of apoptosis in human SMMC7721 cells at 3 uM after 48 hrs by Annexin V/propidium iodide staining based flow cytometry relative to control; format: functional
HepG2 [15] = experiment: Induction of apoptosis in human HepG2 cells at 3 uM after 48 hrs by Annexin V/propidium iodide staining based flow cytometry relative to control; format: functional
SMMC-7721 [16] = experiment: Induction of apoptosis in human SMMC7721 cells assessed as increase in cleaved PARP1 protein expression at 1 to 3 uM after 24 hrs by Western blot analysis; format: functional, cell-based
HepG2 [17] = experiment: Induction of apoptosis in human HepG2 cells assessed as decrease in Bcl2 protein expression at 1 to 3 uM after 24 hrs by Western blot analysis; format: functional, cell-based
SMMC-7721 [18] = experiment: Induction of apoptosis in human SMMC7721 cells assessed as decrease in Bcl2 protein expression at 1 to 3 uM after 24 hrs by Western blot analysis; format: functional, cell-based
SMMC-7721 [19] = experiment: Induction of apoptosis in human SMMC7721 cells assessed as increase in p53 protein expression at 1 to 3 uM after 24 hrs by Western blot analysis; format: functional, cell-based
HepG2 [20] = experiment: Induction of autophagy in human HepG2 cells assessed as vacuolization after 12 hrs; format: functional, cell-based
SMMC-7721 [21] = experiment: Induction of autophagy in human SMMC7721 cells assessed as vacuolization after 12 hrs; format: functional, cell-based
SMMC-7721 [22] = experiment: Induction of autophagy in human SMMC7721 cells assessed as vacuolization at 2 uM after 12 hrs by transmission electron microscopic method; format: functional, cell-based
SMMC-7721 [23] = experiment: Induction of autophagy in human SMMC7721 cells after 24 hrs by MDC staining based HCS analysis; format: functional, cell-based
HepG2 [24] = experiment: Cytotoxicity against human HepG2 cells assessed as reduction in cell viability in presence of autophagy inhibitor 3-MA by MTT assay; format: functional, cell-based
HepG2 [25] = experiment: Induction of ROS generation in human HepG2 cells at 1 to 3 uM after 24 hrs by DCFH-DA staining based HCS analysis; format: functional, cell-based
SMMC-7721 [26] = experiment: Induction of ROS generation in human SMMC7721 cells at 1 to 3 uM after 24 hrs by DCFH-DA staining based HCS analysis; format: functional, cell-based
HepG2 [27] = experiment: Induction of ROS generation in human HepG2 cells at 1 to 3 uM after 24 hrs in presence of antioxidant alpha-tocopherol by DCFH-DA staining based HCS analysis; format: functional, cell-based
SMMC-7721 [28] = experiment: Induction of ROS generation in human SMMC7721 cells at 1 to 3 uM after 24 hrs in presence of antioxidant alpha-tocopherol by DCFH-DA staining based HCS analysis; format: functional, cell-based
HepG2 [29] = experiment: Cytotoxicity against human HepG2 cells assessed as reduction in cell viability treated at 1 hr post antioxidant alpha-tocopherol addition by MTT assay; format: functional, cell-based
SMMC-7721 [30] = experiment: Cytotoxicity against human SMMC7721 cells assessed as reduction in cell viability treated at 1 hr post antioxidant alpha-tocopherol addition by MTT assay; format: functional, cell-based
HepG2 [31] = experiment: Cytotoxicity against human HepG2 cells assessed as morphological changes treated at 1 hr post antioxidant alpha-tocopherol addition and measured after 24 hrs; format: functional, cell-based
SMMC-7721 [32] = experiment: Cytotoxicity against human SMMC7721 cells assessed as morphological changes treated at 1 hr post antioxidant alpha-tocopherol addition and measured after 24 hrs; format: functional, cell-based
HepG2 [33] = experiment: Induction of apoptosis in human HepG2 cells treated at 1 hr post antioxidant alpha-tocopherol addition and measured after 24 hrs by Annexin V/propidium iodide staining based flow cytometry; format: functional, cell-based
SMMC-7721 [34] = experiment: Induction of apoptosis in human SMMC7721 cells treated at 1 hr post antioxidant alpha-tocopherol addition and measured after 24 hrs by Annexin V/propidium iodide staining based flow cytometry; format: functional, cell-based
SMMC-7721 [35] = experiment: Induction of apoptosis in human SMMC7721 cells assessed as increase in p53 protein expression treated at 1 hr post antioxidant alpha-tocopherol addition and measured after 24 hrs by Western blot analysis; format: functional, cell-based
HepG2 [36] = experiment: Induction of autophagy in human HepG2 cells assessed as increase in LC3-2 protein expression treated at 1 hr post antioxidant alpha-tocopherol addition and measured after 24 hrs by Western blot analysis; format: functional, cell-based
SMMC-7721 [37] = experiment: Induction of autophagy in human SMMC7721 cells assessed as increase in LC3-2 protein expression treated at 1 hr post antioxidant alpha-tocopherol addition and measured after 24 hrs by Western blot analysis; format: functional, cell-based
HepG2 [38] = experiment: Antimigratory activity against human HepG2 cells after 24 hrs by scratch wound healing assay; format: functional, cell-based
SMMC-7721 [39] = experiment: Antimigratory activity against human SMMC7721 cells after 24 hrs by scratch wound healing assay; format: functional, cell-based
SMMC-7721 [40] = experiment: Antimigratory activity against human SMMC7721 cells at 1 to 3 uM after 24 hrs by crystal violet staining based transwell migration assay; format: functional, cell-based
SMMC-7721 [41] = experiment: Downregulation of beta-catenin protein expression in human SMMC7721 cells at 1 to 3 uM after 24 hrs by Western blot analysis; format: functional, cell-based
HepG2 [42] = experiment: Antimigratory activity against human HepG2 cells treated at 1 hr post antioxidant alpha-tocopherol addition and measured after 24 hrs by scratch wound healing assay; format: functional, cell-based
SMMC-7721 [43] = experiment: Antimigratory activity against human SMMC7721 cells treated at 1 hr post antioxidant alpha-tocopherol addition and measured after 24 hrs by scratch wound healing assay; format: functional, cell-based
HepG2 [44] = experiment: Downregulation of beta-catenin protein expression in human HepG2 cells treated at 1 hr post antioxidant alpha-tocopherol addition and measured after 24 hrs by Western blot analysis; format: functional, cell-based

In the case of CCCCN1C(=O)c2ccc3c4c(ccc(c24)C1=O)C(=O)N(CCCN(C)C)C3=O, the Activity (HepG2 [1]) is reported as “Dose-dependent effect”, the IC50 (MCF7) is reported as 5.15 µM and the IC50 (HCT-116) is reported as 14.7 µM. For the same compound, the “Ratio IC50” value (HepG2 [2]) was 5, the “Ratio IC50” value (SMMC-7721 [3]) was 5 and the IC50 (HepG2 [4]) was 4.29 µM. The IC50 (SMMC-7721 [5]) was 5.38 µM, the IC50 [6] was 7.11 µM and the Activity (HepG2 [7]) was “Active”. The Activity (HepG2 [8]) was “Active”, the Activity (HepG2 [9]) was “Active” and the Activity (SMMC-7721 [10]) was “Active”. The Activity (SMMC-7721 [11]) was “Active”, the Activity (SMMC-7721 [12]) was “Active” and the Activity (HepG2 [13]) was “Dose-dependent effect”. The Activity (SMMC-7721 [14]) was 52.1%, the Activity (HepG2 [15]) was 67.8% and the Activity (SMMC-7721 [16]) was “Active”. For the same compound, the Activity (HepG2 [17]) was “Active”, the Activity (SMMC-7721 [18]) was “Active” and the Activity (SMMC-7721 [19]) was “Active”. The Activity (HepG2 [20]) was “Active”, the Activity (SMMC-7721 [21]) was “Active” and the Activity (SMMC-7721 [22]) was “Active”. The Activity (SMMC-7721 [23]) was “Dose-dependent effect”, the Activity (HepG2 [24]) was “inactive” and the Activity (HepG2 [25]) was “Active”. The Activity (SMMC-7721 [26]) was “Active”, the Activity (HepG2 [27]) was “inactive” and the Activity (SMMC-7721 [28]) was “inactive”. The Activity (HepG2 [29]) was “inactive”, the Activity (SMMC-7721 [30]) was “inactive” and the Activity (HepG2 [31]) was “inactive”. The Activity (SMMC-7721 [32]) was “inactive”, the Activity (HepG2 [33]) was “inactive” and the Activity (SMMC-7721 [34]) was “inactive”. The Activity (SMMC-7721 [35]) was “inactive”, the Activity (HepG2 [36]) was “inactive” and the Activity (SMMC-7721 [37]) was “inactive”. For the same compound, the Activity (HepG2 [38]) was “Dose-dependent effect”, the Activity (SMMC-7721 [39]) was “Dose-dependent effect” and the Activity (SMMC-7721 [40]) was “Active”. For the same compound, the Activity (SMMC-7721 [41]) was “Active”, the Activity (HepG2 [42]) was “inactive” and the Activity (SMMC-7721 [43]) was “inactive”. The Activity (HepG2 [44]) was “inactive”.
